Tested on: A498 complex spheroids with HUVEC/MSC, growth
Assay: Anticancer human tumor A498 cell line growth inhibition [AhR];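 further: seven day exposure starting three days after spheroid seeding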;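 on viability, T/C: luminescence signal used as a surrogate for viable cells; luminescence viability scaled so 100% equals DMSO vehicle wells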
Details: for IC50: curve of first compound; for viability, T/C: stronger effect = lower value
Summary of the method: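 Spheroids combined tumor cells with HUVEC endothelial cells and human MSCs as stroma. AhR antagonists were paired with standard or investigational drugs, each dosed in half-log steps down from near clinical Cmax, or from 10 microM where Cmax was unknown.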

[1] = second compound 0.1 µM, first compound 0.00949 µM
[2] = second compound 0.1 µM, first compound 0.03 µM
[3] = second compound 0.1 µM, first compound 0.0949 µM
[4] = second compound 0.1 µM, first compound 0.3 µM
[5] = second compound 0.1 µM, first compound 0.949 µM
[6] = second compound 0.1 µM, first compound 3 µM
[7] = second compound 0.316 µM, first compound 0.00949 µM
[8] = second compound 0.316 µM, first compound 0.03 µM
[9] = second compound 0.316 µM, first compound 0.0949 µM
[10] = second compound 0.316 µM, first compound 0.3 µM
[11] = second compound 0.316 µM, first compound 0.949 µM
[12] = second compound 0.316 µM, first compound 3 µM
[13] = second compound 1 µM, first compound 0.00949 µM
[14] = second compound 1 µM, first compound 0.03 µM
[15] = second compound 1 µM, first compound 0.0949 µM
[16] = second compound 1 µM, first compound 0.3 µM
[17] = second compound 1 µM, first compound 0.949 µM
[18] = second compound 1 µM, first compound 3 µM
[19] = second compound 3.16 µM, first compound 0.00949 µM
[20] = second compound 3.16 µM, first compound 0.03 µM
[21] = second compound 3.16 µM, first compound 0.0949 µM
[22] = second compound 3.16 µM, first compound 0.3 µM
[23] = second compound 3.16 µM, first compound 0.949 µM
[24] = second compound 3.16 µM, first compound 3 µM
[25] = second compound 10 µM, first compound 0.00949 µM
[26] = second compound 10 µM, first compound 0.03 µM
[27] = second compound 10 µM, first compound 0.0949 µM
[28] = second compound 10 µM, first compound 0.3 µM
[29] = second compound 10 µM, first compound 0.949 µM
[30] = second compound 10 µM, first compound 3 µM

Row | SMILES | IC50 (second compound 0.1 µM) [nM] | IC50 (second compound 0.316 µM) [nM] | IC50 (second compound 1 µM) [nM] | IC50 (second compound 3.16 µM) [nM] | IC50 (second compound 10 µM) [nM] | viability, T/C [1] [%] | viability, T/C [2] [%] | viability, T/C [3] [%] | viability, T/C [4] [%] | viability, T/C [7] [%] | viability, T/C [8] [%] | viability, T/C [9] [%] | viability, T/C [10] [%] | viability, T/C [13] [%] | viability, T/C [14] [%] | viability, T/C [15] [%] | viability, T/C [16] [%] | viability, T/C [19] [%] | viability, T/C [20] [%] | viability, T/C [21] [%] | other results
1 | CCN(c1cc(-c2ccc(CN3CCOCC3)cc2)cc(C(=O)NCc2c(C)cc(C)[nH]c2=O)c1C)C1CCOCC1 + Cc1cncc(-c2nc(NCCc3c[nH]c4ccccc34)c3ncn(C(C)C)c3n2)c1 | > 3000 | > 3000 | > 3000 | < 9.49 | < 9.49 | 94 | 97 | 90.2 | 87.7 | 103 | 94.2 | 101 | 90 | 88.8 | 91.4 | 86.1 | 81.3 | 44.6 | 45 | 47.2 | viability, T/C [5]: 97.7%; viability, T/C [6]: 88.4%; viability, T/C [11]: 97.4%; viability, T/C [12]: 91.5%; viability, T/C [17]: 82%; viability, T/C [18]: 88.1%; viability, T/C [22]: 44.5%; viability, T/C [23]: 45.7%; viability, T/C [24]: 39.5%; viability, T/C [25]: 4.35%; viability, T/C [26]: 4.58%; viability, T/C [27]: 6.5%; viability, T/C [28]: 4.8%; viability, T/C [29]: 2.06%; viability, T/C [30]: 1.26%
2 | Nc1ncn(C2CC(O)C(CO)S2)c(=O)n1 (stereo not given) + Cc1cncc(-c2nc(NCCc3c[nH]c4ccccc34)c3ncn(C(C)C)c3n2)c1 | > 300 | > 300 | > 300 | < 0.949 | < 0.949 | 92.5 | 77.8 | 73.7 | 63.3 | 95 | 86.9 | 80.6 | 68.3 | 80.4 | 73.4 | 75.2 | 68.2 | 36.5 | 27.1 | 29.6 | viability, T/C (second compound 0.1 µM, first compound 0.000949 µM): 90.1%; viability, T/C (second compound 0.1 µM, first compound 0.003 µM): 89.7%; viability, T/C (second compound 0.316 µM, first compound 0.000949 µM): 94.1%; viability, T/C (second compound 0.316 µM, first compound 0.003 µM): 104%; viability, T/C (second compound 1 µM, first compound 0.000949 µM): 83.6%; viability, T/C (second compound 1 µM, first compound 0.003 µM): 86%; viability, T/C (second compound 3.16 µM, first compound 0.000949 µM): 32.3%; viability, T/C (second compound 3.16 µM, first compound 0.003 µM): 33.6%; viability, T/C [22]: 28.2%; viability, T/C (second compound 10 µM, first compound 0.000949 µM): 5.79%; viability, T/C (second compound 10 µM, first compound 0.003 µM): 5.22%; viability, T/C [25]: 5.53%; viability, T/C [26]: 6.62%; viability, T/C [27]: 4.93%; viability, T/C [28]: 5.47%
3 | O=C(C=Cn1cnc(-c2cc(C(F)(F)F)cc(C(F)(F)F)c2)n1)NNc1cnccn1 + Cc1cncc(-c2nc(NCCc3c[nH]c4ccccc34)c3ncn(C(C)C)c3n2)c1 | 81.5 | 105 | 78.2 | 72.4 | < 9.49 | 86.3 | 73.7 | 46.5 | 30.3 | 87.2 | 81.1 | 51.5 | 30.9 | 84.8 | 73.2 | 45.6 | 27.9 | 69.3 | 67.6 | 43.9 | viability, T/C [5]: 25.3%; viability, T/C [6]: 26.6%; viability, T/C [11]: 30.8%; viability, T/C [12]: 22.2%; viability, T/C [17]: 25%; viability, T/C [18]: 24.6%; viability, T/C [22]: 30.1%; viability, T/C [23]: 24.2%; viability, T/C [24]: 23.2%; viability, T/C [25]: 3.95%; viability, T/C [26]: 5.26%; viability, T/C [27]: 7.65%; viability, T/C [28]: 6.47%; viability, T/C [29]: 8.27%; viability, T/C [30]: 11.1%

— PubChem BioAssay AID1919007 (Molecular Pharmacology Branch, DTP, NCI, 2023)
